Read-outs that look alike come from different tables or passages of the source.
Experiments:
[1] = tested on: SW1 cells; test: cells; format: cell-based, mouse; details: for effect of JNK inhibitor SP600125 on compound-induced cell death: 30-minute pretreatment with SP600125 (10 μM), then compound 20 h
Description: (§1) Cell lines. Mouse melanoma (SW1) and human melanoma (LU1205) cells were maintained in DMEM supplemented with 10% FBS, L-glutamine and antibiotics. The human melanoma cell lines MEWO and WM115 were maintained in RPMI supplemented with 10% FBS and antibiotics. Primary mouse melanocytes were cultured in F-12 media supplemented with 10% FBS, antibiotics, IBMX (isobuthyl-methylxantine), bovine pituitary extract, and TPA.
Mitochondrial activity and apoptosis. Cells were exposed to the chemicals for 12-48 hours as indicated in Results. To measure changes in mitochondrial activity reflective of general cell viability, the ATPLITE ATP detection assay was used according to the manufacturer's recommendations (Perkin Elmer). Apoptosis analysis was performed by flow cytometry of PI-stained cells. The percentage of cells to the left of the diploid G0/1 peak, characteristic of hypodiploid cells that have partially lost DNA, was calculated as percentage of apoptotic cells (Bhoumik et al., PNAS 101:4222-7, 2004). Analysis of changes in Caspase 8 expression pattern was performed using immunoblot analysis. […]
Characterization of CSL and AIGA effects on mouse melanoma cells. The structures of AIGA and CSL are depicted in FIGS. 1a and 1b. AIGA was tested for cytotoxicity at concentrations ranging between 0.1 and 2 μM, whereas CSL was used at a concentration of 0.01 to 0.3 μM. SW1 cells or normal melanocytes were seeded on 96 well plates and 24 h late, cells were treated with the indicated concentrations of ATF2 50-100 peptide, AIGA, or CSL for 20 h. ATF2 50-100 peptide (cloned in mammalian expression vector in frame with penetratin was transfected with the aid of lipofectamine) was used as a positive control. ATP levels were used as an indicator of cell viability and were measured using the ATPLITE ATP detection assay kit. The number of surviving cells upon AIGA treatment was normalized to the number of surviving cells under the control treatment, and the normalized number was designated as the “% Viability.” Results shown in FIGS. 1c-1f represent 3 experiments. Treatment of SW1 melanoma cells with 1 μM of AIGA reduced the viability of melanoma cells to 10%, (FIG. 1c). Treatment of the SW1 cells with 0.05 μM of CSL reduced the viability of melanoma cells to 50%, and 0.1 μM reduced it to 10% (FIG. 1d). […] Normal melanocytes and fibroblasts were used as a control.
Thus, the two compounds were evaluated to determine if they require JNK activity for their effects on melanoma cells. To this end, the ability of AIGA or CSL to affect the viability of melanoma cells in the presence of a JNK inhibitor was tested. SW1 cells, with or without a 30-minute pretreatment with the JNK inhibitor SP600125 (10 μM), were contacted with AIGA or CSL at the indicated concentrations for 20 h. ATP levels were used to measure the cell viability using the ATPLITE kit. The number of surviving cells upon AIGA or CSL treatment was normalized to the number of surviving cells under the control treatment, and the normalized number was designated as the “% Viability.” Shown are representative results from 2 experiments. […] Of note, inhibition of JNK activity was more pronounced at lower concentrations of CSL compared with AIGA. […] To assess whether these compounds affect JNK activity, changes in JNK phosphorylation on residues 183/185, which are required for its kinase activity, were monitored. Western blot analysis for JNK phosphorylation on residues 183/185 was performed on protein extracts that were prepared from cells treated with AIGA at concentrations of 0.5 μM, 1.0 μM, and 2.0 μM and a control with no AIGA treatment. Duplicate samples were treated with JNK inhibitor (SP600125). Total level of JNK was analyzed in parallel. […]

[2] = tested on: normal mouse melanocytes; test: Normal melanocyte viability, ATPLITE; format: cell-based; details: 0.1 μM, 20 h
Description: as §1
Mitochondrial activity and apoptosis. Cells were exposed to the chemicals for 12-48 hours as indicated in Results. To measure changes in mitochondrial activity reflective of general cell viability, the ATPLITE ATP detection assay was used according to the manufacturer's recommendations (Perkin Elmer). Apoptosis analysis was performed by flow cytometry of PI-stained cells. The percentage of cells to the left of the diploid G0/1 peak, characteristic of hypodiploid cells that have partially lost DNA, was calculated as percentage of apoptotic cells (Bhoumik et al., PNAS 101:4222-7, 2004). Analysis of changes in Caspase 8 expression pattern was performed using immunoblot analysis.
Characterization of CSL and AIGA effects on mouse melanoma cells. The structures of AIGA and CSL are depicted in FIGS. 1a and 1b. […] ATP levels were used as an indicator of cell viability and were measured using the ATPLITE ATP detection assay kit. […]

[3] = tested on: normal human breast cultures MCF10; test: Toxicity on normal human breast cultures; format: cell-based
[4] = tested on: AP1/c-Jun transcriptional activity; test: TRE-luciferase reporter assay in SW1 cells; format: cell-based, mouse; details: 8 h; for AP1/c-Jun transcriptional activity (TRE-Luc): compounds compared with ATF2 peptide; for dose from which c-Jun transcriptional activity is induced: TRE-Luc
Description: (§2) Constructs and inhibitors. An ATF2 peptide (aa 51-100) was cloned into HA-tagged pcDNA3 vector as previously described (Bhoumik et al., Cancer Res 64:8222-30, 2004). 5×Jun2tk-Luc (marker for ATF2 transcriptional activities), 5×TRE-tk-Luc (marker for AP1/c-Jun transcriptional activities) and 2×NF-B-Luc were previously described (Bhoumik et al., J Clin Invest 110:643-50, 2002). Pharmacological inhibitor of JNK (SP600125) was purchased (EMD biosciences) and added (5 μM) to cultured cells as indicated in Results.
(§3) Transcriptional analysis. Transient transfection of different reporter constructs into melanoma cells was performed using LIPOFECTAMINE PLUS transfection reagent (Invitrogen). Luciferase activity was determined as previously described (Bhoumik et al., PNAS 101:4222-7, 2004).
The effects of the two compounds on c-Jun transcriptional activity in mouse melanoma SW1 cells was assessed. SW1 cells were transfected with the TRE-luciferase plasmid and 24 h later, cells were treated with the indicated concentrations of AIGA or CSL for 8 h before proteins were prepared and level of luciferase activity was measured. ATF250-100 peptide was used as a positive control. Data shown represent results from 3 experiments. […] AIGA induced c-Jun transcriptional activity at doses starting from 0.1 μM (FIG. 2a).

[5] = tested on: ATF2 transcriptional activity; test: Jun2-luciferase reporter assay in SW1 cells; format: cell-based; details: Mus musculus, Jun2-Luc, 8 h, read-out: concentration required to cause about 50% inhibition of ATF2 transcriptional activity
Description: as §2, §3
These compounds were next assessed for their impact on ATF2 transcriptional activity. The effect of AIGA on ATF2 transcriptional activities was measured by the Jun2-luciferase assay. SW1 cells were transfected with the Jun2-luciferase plasmid and 24 h later cells were treated with the indicated concentrations of AIGA or CSL for 8 h before proteins were prepared and level of luciferase activity was measured. ATF2 51-100 peptide was used as a positive control. Data shown represent results from 3 experiments. […]

| SMILES | effect of JNK inhibitor SP600125 on compound-induced cell death [1] | viability at 1 µM ([1]; Mus musculus, 20 h, read-out: % Viability of SW1 melanoma cells) [%] | toxicity on normal mouse melanocytes [2] [%] | toxic effect on normal human breast cultures MCF10 [3] | AP1/c-Jun transcriptional activity (TRE-Luc) [4] | dose from which c-Jun transcriptional activity is induced [4] [µM] | IC50 [5] [nM] | viability at 0.05 µM ([1]; Mus musculus, 0.05 μM, 20 h, read-out: % Viability of SW1 melanoma cells) [%] | viability at 0.1 µM ([1]; Mus musculus, 0.1 μM, 20 h, read-out: % Viability of SW1 melanoma cells) [%] | EC50 ([1]; Mus musculus, numeric EC50 cells of the column, read-out: Activity or EC50 (μM) in SW1 cells) [µM] | toxic effect on normal human breast cultures MCF10 ([3]; data not shown) |
| --- | --- | --- | --- | --- | --- | --- | --- | --- | --- | --- | --- |
| CC(=O)Oc1c2c(c(CC=C(C)C)c3c1C(=O)C1=C[C@@H]4CC5C(C)(C)OC(C/C=C(\C)C(=O)O)(C4=O)[C@@]15O3)OC(C)(CCC=C(C)C)C=C2 (stereo partly shown) [AIGA, Acetyl isogambogic acid] | attenuated the ability of AIGA or CSL to elicit the cell death | 10 | 40 | Neither CSL nor AIGA elicited toxic effect | stronger activation of c-Jun transcription | ≥ 0.1 | ~500 |  |  |  |  |
| CC1=C(O)C(=O)C=C2C1=CC=C1[C@@]2(C)CC[C@@]2(C)[C@@H]3C[C@](C)(C(=O)O)CC[C@]3(C)CC[C@]12C [Celastrol] | attenuated the ability of AIGA or CSL to elicit the cell death |  | 10 |  | stronger activation of c-Jun transcription | ≥ 0.01 | ~50 | 50 | 10 | ~0.1 | Neither CSL nor AIGA elicited toxic effect |
